# Tested on: L1210
# Assay: In vitro cytotoxicity against L1210 cell line
# Format: functional, cell-based
# Conditions: Mus musculus
row,SMILES,IC50 [nM]
1,COC(=O)c1cc2c([nH]1)C(=O)C=C1N(C(=O)c3cc4c([nH]3)C(=O)C=C3N(C(=O)OC(C)(C)C)C[C@@H]5C[C@@]345)C[C@H]3C[C@]123 (mixture of isomers),0.005
2,COC(=O)c1cc2c([nH]1)C(=O)C=C1N(C(=O)c3cc4cc(OC)c(OC)c(OC)c4[nH]3)C[C@@H]3C[C@@]123,0.1
3,COC(=O)c1cc2c([nH]1)C(=O)C=C1N(C(=O)c3cc4c([nH]3)C(=O)C=C3N(C(=O)OC(C)(C)C)C[C@@H]5C[C@@]345)C[C@@H]3C[C@@]123,0.05
4,COC(=O)c1cc2c([nH]1)C(=O)C=C1N(C(=O)c3cc4c([nH]3)C(=O)C=C3N(C(=O)OC(C)(C)C)C[C@H]5C[C@]345)C[C@@H]3C[C@@]123,0.04
5,COC(=O)c1cc2c([nH]1)C(=O)C=C1N(C(=O)c3cc4c([nH]3)C(=O)C=C3N(C(=O)OC(C)(C)C)C[C@H]5C[C@]345)C[C@H]3C[C@]123,0.003
6,COC(=O)c1cc2c([nH]1)C(=O)C=C1N(C(=O)c3cc4cc(OC)c(OC)c(OC)c4[nH]3)C[C@H]3C[C@]123 [DUOCARMYCIN],0.01

# Reference: ChEMBL document CHEMBL1133414, “Bifunctional alkylating agents derived from duocarmycin SA: potent antitumor activity with altered sequence selectivity” (Bioorg Med Chem Lett, 2000)
